This note sets out measurements from PMC7081834 (Science (New York, N.Y.), 2019).

This test deals with WWP1 (WW domain–containing ubiquitin E3 ligase 1) (Homo sapiens, UniProt Q9H0M0, F577A/Y656A). Nature of the test: microscale thermophoresis. Type of test: binding. For orientation: In MST a laser heats a spot of the sample, and binding alters the fluorescence response.
Chain of WWP1 (WW domain–containing ubiquitin E3 ligase 1) (Q9H0M0 546-922 F577A/Y656A limits assumed): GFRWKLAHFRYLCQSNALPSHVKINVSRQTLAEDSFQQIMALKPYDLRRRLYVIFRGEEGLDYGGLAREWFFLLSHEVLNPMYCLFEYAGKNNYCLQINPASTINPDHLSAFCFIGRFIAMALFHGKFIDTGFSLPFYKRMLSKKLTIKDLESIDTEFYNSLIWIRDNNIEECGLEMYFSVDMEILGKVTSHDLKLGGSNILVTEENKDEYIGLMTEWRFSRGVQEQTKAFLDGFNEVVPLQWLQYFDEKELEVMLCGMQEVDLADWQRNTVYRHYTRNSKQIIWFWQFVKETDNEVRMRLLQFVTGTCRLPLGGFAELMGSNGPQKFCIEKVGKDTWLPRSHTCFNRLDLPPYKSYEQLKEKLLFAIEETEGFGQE

In turn, `OCc1c[nH]c2ccccc12` [I3C, indole-3-carbinol] returned a Kd of around 7.72 µM.

The Kd is a measure of binding affinity in units of concentration.
